According to patent US20090068286A1, “METHOD OF TREATING CANCER BY ADMINISTRATION OF 5-SUBSTITUTED NUCLEOSIDES” (RESprotect, GmbH, priority 2007, published 2009):
Entries after “also recorded” stand apart in the source; their conditions may differ.

Assays:
[1] = tested on: advanced pancreatic adenocarcinoma; test: Pilot study GEM + CIS + BVDU in patients; type: in vivo, human
Procedure: Pilot study: 13 Patients (mean age 61, 69% males, 4 stage III, 9 stage IV) with advanced pancreatic adenocarcinoma were treated with i.v. 1.000 mg/m^2 GEM over 30 min on days 1 and 15 of a 28-day schedule. CIS was administered at 50 mg/m^2. BVDU treatment took place on the same day and for four days after chemotherapy in the recovery phase (each four 125 mg tablets per day, resulting in a total dose of 6.000 mg per treatment cycle). As control, data were used of patients of a preceding study which were treated with GEM and CIS, but not with BVDU. With the intention to obtain a control group with a similar proportion of stage IV and stage III diseases as the 13 patients of the pilot study, […] (6 stage III, 15 stage IV) of 96 patients were selected from the Heinemann study by random generator.
Evaluation: Efficacy was measured by overall survival, objective tumor response rate (ORR, according to WHO criteria in the pilot study and RECIST criteria in the dose finding study) and time to progression (TTP) from the first administration onwards. Serum CA19-9 levels were measured at the start and end of each treatment cycle. Safety was evaluated according to NCI-CTC scale.
Evaluation of Progression: Patients were evaluated every five weeks.
Statistical Methods: Survival curves were generated using the Kaplan-Meier method; survival distributions were compared by the log-rank test (Cox-Mantel), and median survival by the Box and Whisker plot.

[2] = tested on: JUN-D; test: Western Blot analysis of survival pathways: JUN-D; type: cell-based
Procedure: (§1) Different “survival pathways” were tested by means of Western Blot analysis. The analyses were implemented according to standard methods, as is described in Sambrook et al., 2001, Molecular Cloning (3rd ed.). Antibody dilutions: P-STAT3 (cell signaling) 1: 500, JUN-D (Santa Cruz, Calif.) 1: 1,000.
(§2) The densitometrically determined content of oncogene proteins JUN-D and STAT3 was reduced by a quarter or two thirds after DOX treatment in the recovery phase (r=recovery phase). In the “recovery” only BVDU is given, no cytostatic.

[3] = tested on: STAT3; test: Western Blot analysis of survival pathways: STAT3; type: cell-based; details: after DOX treatment, recovery phase: only BVDU given, no cytostatic
Procedure: as §1, §2

[4] = tested on: uridine phosphorylase (UPase); test: UPase expression in human pancreas carcinoma cell lines; type: cell-based
Source text: BVDU downregulates uridine phosphorylase (UPase) expression in BxPC-3 and AsPC-1 human pancreas carcinoma cell lines. […] In squamous cell carcinoma, high staining of UPase in primary tumors was frequently associated with the presence of lymph node metastases and lower overall survival.

[5] = 13 patients, BVDU co-treatment with GEM + CIS
[6] = BVDU co-treatment with GEM + CIS

## O=c1[nH]c(=O)n([C@H]2C[C@H](O)[C@@H](CO)O2)cc1/C=C/Br [BVDU, (E)-5-(2-bromovinyl)-2′-deoxyuridine]
[1]; [5]
  Median survival: 447 days
  Median time to progression (TTP): 280 days
[1]; 13 patients, WHO criteria, BVDU co-treatment with GEM + CIS
  Remissions / response rate: 33%
[1]; [6]
  Patients who live more than two years: 23%
  Patients who lived or have lived longer than one year: 77%
[1]; BVDU-treatment group
  Number of patients living longer than one year after first treatment: Ten of 13
  Number of patients living more than two years: three
[2]; BVDU given in the “recovery” after MMC
  Inhibition of MMC induced JUN-D overexpression: complete inhibition
[2]; after DOX treatment, recovery phase: only BVDU given, no cytostatic
  Reduction of JUN-D protein content (densitometry): approximately one quarter; also recorded: a quarter
[3]
  Reduction of STAT3 protein content (densitometry): approximately two thirds
[4]; AsPC-1 human pancreas carcinoma cell line
  UPase expression: downregulates
[4]; BxPC-3 human pancreas carcinoma cell line
  UPase expression: downregulates
